This note sets out measurements from US20150111852A1, “1-Di(sec-butyl)-phosphinoyl-pentane (dapa-2-5) as a topical agent” (priority 2013, published 2015).

The target in one assay is T1, ASIC3 (acid-sensing) (Homo sapiens, UniProt Q9UHC3).
T1 construct: expressed in transfected cells
T1 sequence (Q9UHC3 1-531): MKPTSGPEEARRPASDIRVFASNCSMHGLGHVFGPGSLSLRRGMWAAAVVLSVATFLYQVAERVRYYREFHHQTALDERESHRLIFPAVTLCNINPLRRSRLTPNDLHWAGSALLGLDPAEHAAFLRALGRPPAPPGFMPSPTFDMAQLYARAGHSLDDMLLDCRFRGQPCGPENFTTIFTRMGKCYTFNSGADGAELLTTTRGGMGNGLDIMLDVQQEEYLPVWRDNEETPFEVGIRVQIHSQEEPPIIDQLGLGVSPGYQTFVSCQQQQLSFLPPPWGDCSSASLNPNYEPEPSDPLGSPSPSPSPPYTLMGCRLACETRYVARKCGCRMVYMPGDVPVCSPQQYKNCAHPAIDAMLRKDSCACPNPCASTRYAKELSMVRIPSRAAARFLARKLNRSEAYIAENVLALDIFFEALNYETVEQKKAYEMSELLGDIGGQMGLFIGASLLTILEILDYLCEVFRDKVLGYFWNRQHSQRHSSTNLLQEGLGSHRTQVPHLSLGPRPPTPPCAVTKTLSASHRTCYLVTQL
Briefly: Patch-clamp in transfected cells, ASIC3. The assay is classed as cell-based. The note with it: DAPA-2-5 at 5 μM; positive control amiloride. (The patch-clamp technique gives a direct electrical read-out from membranes.)

Assay [1] has as its target T2, hNav1.7 (sodium channels) (Homo sapiens, UniProt Q15858).
T2 construct: expressed in transfected cells
Briefly: Patch-clamp in transfected cells, hNav1.7. The format is cell-based. To be noted: DAPA-2-5 at 5 μM; positive control lidocaine.

Assay [2] has as its system isolated normal mouse vagus. Briefly: Capsaicin-induced depolarization of isolated vagus nerve, wild type. On the procedure:
To examine the ability of DAPA-2-5 to suppress sensory discomfort, it was tested in an animal model developed at the Imperial College, London, U.K. [Birrell et al. TRPA1 agonists evoke coughing in guinea pig and human volunteers. Amer. J. Respiratory and Critical Care Medicine 180, 1042-7, 2009; Patel et al., Inhibition of guinea-pig and human sensory nerve activity and the cough reflex in guinea-pigs by cannabinoid (CB2) receptor activation. British J. Pharmacol. 140, 261-8 2003]. In this in vitro assay, segments of the vagus nerve are placed on a platform and the electrical activity is recorded after topical application of capsaicin. Capsaicin is a known irritant that elicits pain when it is applied to the skin and it will depolarize the isolated vagus. The ability of substances to inhibit this capsaicin-induced depolarization is measured.
Briefly, segments of vagus nerve, caudal to the nodose ganglion, were removed from mice with fine forceps and segments placed in oxygenated Krebs solution and bubbled with 95% O2/5% CO2. The desheathed nerve trunk was mounted in a ‘grease-gap’ recording chamber and constantly superfused with Krebs solution with a flow rate of approximately 2 mL/min, and the electrical activity of the nerve monitored with electrodes. The temperature of the perfusate was kept constant at 37° C. by a water bath. […]

Assay [3] deals with citric acid-induced cough. Briefly: Guinea pig cough model, citric acid mist. The note with it: 2 mg/mL in saline, 75 μL per animal, 1 M citric acid mist, 10 min observation period. The format is in vivo. On the procedure: Male specific pathogen—free guinea pigs about one month of age, weighing 250 to 300 g, were obtained from the medical experimental animal center of Guang Dong Province, China, and housed in rooms maintained at 22±2° C. and 55±15% humidity with a 12-hr light cycle and 20 air changes per hr. The experimental procedures were approved by the Institutional Animal Care and Use Committee. Guinea pigs were placed in a transparent plastic 2 L plethysmography chamber equipped with a bias flow regulator that withdrew air at a rate of 2.5 L/min (Buxco, Wilmington, N.C., USA). […] The frequency was detected as a transient change in airflow in the chamber and the signal recorded via a pressure transducer and computer. Additionally, the audio-amplified count was also recorded electronically. Coughs were counted for the 10 min exposure period. The experiment was visually monitored by the investigator. The baseline frequency of coughing was recorded for all animals (N=20) and 7 days later, animals were anesthetized with diethyl ether. […] Ten min after injection, the guinea pigs were exposed to the citric acid mist and the number of coughs recorded.

T2 sequence (Q15858 whole entry): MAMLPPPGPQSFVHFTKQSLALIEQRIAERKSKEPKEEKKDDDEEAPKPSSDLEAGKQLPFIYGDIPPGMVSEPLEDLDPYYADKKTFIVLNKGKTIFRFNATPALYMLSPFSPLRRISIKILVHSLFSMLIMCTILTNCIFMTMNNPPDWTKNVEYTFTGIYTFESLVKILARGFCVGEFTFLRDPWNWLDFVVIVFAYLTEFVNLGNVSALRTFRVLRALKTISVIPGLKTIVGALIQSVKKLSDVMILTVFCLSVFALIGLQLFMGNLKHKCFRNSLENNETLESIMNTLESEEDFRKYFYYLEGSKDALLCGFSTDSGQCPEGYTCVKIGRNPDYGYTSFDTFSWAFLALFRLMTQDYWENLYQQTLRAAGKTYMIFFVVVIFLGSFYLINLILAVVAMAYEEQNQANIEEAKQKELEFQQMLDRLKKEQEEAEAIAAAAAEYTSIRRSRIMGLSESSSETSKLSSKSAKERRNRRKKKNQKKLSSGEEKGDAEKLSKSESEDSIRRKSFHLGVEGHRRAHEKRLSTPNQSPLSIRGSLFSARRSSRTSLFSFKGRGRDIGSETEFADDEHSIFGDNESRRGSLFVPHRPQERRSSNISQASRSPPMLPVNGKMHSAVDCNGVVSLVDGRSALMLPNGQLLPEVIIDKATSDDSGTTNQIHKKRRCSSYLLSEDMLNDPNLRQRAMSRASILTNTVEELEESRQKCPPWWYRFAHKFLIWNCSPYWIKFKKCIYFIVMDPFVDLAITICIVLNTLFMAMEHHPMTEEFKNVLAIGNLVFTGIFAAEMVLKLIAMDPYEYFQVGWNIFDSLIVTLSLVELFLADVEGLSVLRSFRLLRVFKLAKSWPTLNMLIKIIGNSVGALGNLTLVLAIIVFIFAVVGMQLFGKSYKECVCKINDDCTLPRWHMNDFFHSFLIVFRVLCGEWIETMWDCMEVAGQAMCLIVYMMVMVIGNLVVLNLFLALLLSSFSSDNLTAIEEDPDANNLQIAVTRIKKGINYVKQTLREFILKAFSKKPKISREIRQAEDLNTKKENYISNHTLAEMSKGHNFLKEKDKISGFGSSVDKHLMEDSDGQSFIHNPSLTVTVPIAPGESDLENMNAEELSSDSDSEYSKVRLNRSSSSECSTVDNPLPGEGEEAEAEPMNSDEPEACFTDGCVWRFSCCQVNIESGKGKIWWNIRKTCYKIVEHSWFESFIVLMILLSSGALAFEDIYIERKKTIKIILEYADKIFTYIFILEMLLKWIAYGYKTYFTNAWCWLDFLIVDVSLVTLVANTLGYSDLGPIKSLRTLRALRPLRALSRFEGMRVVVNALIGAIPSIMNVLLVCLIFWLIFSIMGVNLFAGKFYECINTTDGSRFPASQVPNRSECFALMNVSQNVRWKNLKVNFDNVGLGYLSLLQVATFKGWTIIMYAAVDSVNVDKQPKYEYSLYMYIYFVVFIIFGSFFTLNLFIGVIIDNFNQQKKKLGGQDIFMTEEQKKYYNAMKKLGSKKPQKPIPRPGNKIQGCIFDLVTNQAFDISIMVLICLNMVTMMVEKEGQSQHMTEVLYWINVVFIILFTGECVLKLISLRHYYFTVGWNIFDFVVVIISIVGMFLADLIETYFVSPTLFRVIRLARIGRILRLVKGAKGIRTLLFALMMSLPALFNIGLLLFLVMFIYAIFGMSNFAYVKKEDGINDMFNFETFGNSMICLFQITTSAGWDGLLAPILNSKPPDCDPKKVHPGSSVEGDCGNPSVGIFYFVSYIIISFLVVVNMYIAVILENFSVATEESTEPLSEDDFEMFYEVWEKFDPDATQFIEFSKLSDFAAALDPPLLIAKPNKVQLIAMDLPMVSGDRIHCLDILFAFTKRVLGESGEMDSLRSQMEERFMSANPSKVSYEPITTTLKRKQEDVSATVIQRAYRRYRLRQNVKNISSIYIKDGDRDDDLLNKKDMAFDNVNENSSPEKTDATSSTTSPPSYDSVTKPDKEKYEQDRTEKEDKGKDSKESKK

For the compound `CCCCCP(=O)(C(C)CC)C(C)CC` (centres unmarked) [DAPA-2-5, 1-Di(sec-butyl)-phosphinoyl-pentane], the “agonist or antagonist activity, ASIC3” value at ASIC3 (acid-sensing) is on record as “No agonist or antagonist activities”. The “agonist or antagonist activity, hNav1.7” value in assay [1] was “No agonist or antagonist activities”. The “depolarization evoked by the compound itself” value in assay [2] is “did not evoke depolarization”. In addition, in assay [2] (Mus musculus, 10 min, 1 mg/mL for 10 min, capsaicin 1 μM, read-out: per cent inhibition of capsaicin-induced depolarization), the inhibition at 1000 µg/mL is about 60%. In assay [3], this compound yielded a cough frequency of 6.7±1.6 coughs.

In general, inhibition refers to the relative decrease from the control value, in per cent.
